Results published in patent US5910479A, “Method for the treatment of Streptococcus pneumoniae infection” (priority 1996, dated 1999).
≈ marks a conversion by molar mass, not a printed value.

How the values were obtained:
[1] = test system: Streptococcus pneumoniae Felton; assay: Mouse i.p. infection model (septicemia), survival; format: in vivo; conditions: mice; for Survivors (%) / Survivors/total: twice
Description: Mouse i.p. infection model. Staphylococcus aureus Smith was grown in veal infusion broth and each mouse was infected intraperitoneally with 10^6 colony-forming units (CFU), diluted in broth containing 5% (w/v) Difco bacteriological mucin. Streptococcus pneumoniae Felton strain was grown in Difco Brain Heart Infusion broth (BHI) and each mouse was infected intraperitoneally with 10^3 CFU, diluted in BHI. Mice were divided into groups of 5. […] Other groups of mice received different dosages of nisin. Nisin was administered either intravenously (via the tail vein in. 0.1 ml of 5% dextrose for injection) or subcutaneously (in 0.2 ml). Two injections were given to each mouse, the first within 10 minutes after infection and the second after 5 hours. […] Different dosages of vancomycin or penicillin were administered i.v. in 0.1 ml of 5% glucose for injection.

[2] = test system: S. pneumoniae; conditions: strain of S. pneumoniae used; reported by Goldstein et al.; cited from earlier work

Compound | Efficacy compared with the other agents (in words) ([1]; i.v.) | Survivors (%) ([1]; i.v., 0.5 mg/kg/dose) | Survivors/total ([1]; i.v., 0.5 mg/kg/dose) | Survivors (%) ([1]; i.v., 1 mg/kg/dose) | Survivors/total ([1]; i.v., 1 mg/kg/dose) | Survivors (%) ([1]; i.v., 2 mg/kg/dose) | Survivors/total ([1]; i.v., 2 mg/kg/dose) | Survivors (%) ([1]; i.v., 4 mg/kg/dose) | Survivors/total ([1]; i.v., 4 mg/kg/dose) | Survivors (%) ([1]; i.v., 8 mg/kg/dose) | Survivors/total ([1]; i.v., 8 mg/kg/dose) | Survivors (%) ([1]; i.v., 16 mg/kg/dose) | Survivors/total ([1]; i.v., 16 mg/kg/dose) | MIC [2] [µg/mL] | Survivors (%) ([1]; i.v., 32 mg/kg/dose) | Survivors/total ([1]; i.v., 32 mg/kg/dose) | Survivors (%) ([1]; s.c., 2 mg/kg/dose) | Survivors/total ([1]; s.c., 2 mg/kg/dose) | Survivors (%) ([1]; s.c., 4 mg/kg/dose) | Survivors/total ([1]; s.c., 4 mg/kg/dose)
CC1(C)S[C@@H]2[C@H](NC(=O)Cc3ccccc3)C(=O)N2[C@H]1C(=O)O [penicillin] | less efficacious than nisin | 0 | 0/5 | 20 | 1/5 | 20 | 1/5 | 60 | 3/5 | 20 | 1/5 | 80 | 4/5 | 0.016 (≈ 0.0478 µM) | – | – | – | – | – | –
CN[C@H](CC(C)C)C(=O)N[C@H]1C(=O)N[C@@H](CC(N)=O)C(=O)N[C@H]2C(=O)N[C@H]3C(=O)N[C@H](C(=O)N[C@H](C(=O)O)c4cc(O)cc(O)c4-c4cc3ccc4O)[C@H](O)c3ccc(c(Cl)c3)Oc3cc2cc(c3O[C@@H]2O[C@H](CO)[C@@H](O)[C@H](O)[C@H]2O[C@H]2C[C@](C)(N)[C@H](O)[C@H](C)O2)Oc2ccc(cc2Cl)[C@H]1O [vancomycin] | less efficacious than nisin | – | – | 40 | 2/5 | 60 | 3/5 | 80 | 4/5 | 100 | 5/5 | 100 | 5/5 | – | 100 | 5/5 | 60 | 3/5 | 60 | 3/5
